Results as given in US10660898B2, “Benzimidazole derivatives as PI3 kinase inhibitors” (GLAXOSMITHKLINE LLC, priority 2010, dated 2020).

Legend:
PC-3 = assay: Anchorage independent soft agar tumor growth assay; type: cell-based, human; settings: PC-3 prostate carcinoma, PTEN Loss, No protein
Method: Cellular Assays—Cell Growth Inhibition Assay in PTEN Wild-Type or PTEN Deficient Tumor Cell Lines Twenty-two Phosphatase and Tensin Homolog (PTEN) wild-type or PTEN deficient tumor cell lines were cultured generally according to instructions supplied by cell culture supplier American Type Culture Collection, Manassas, Va., with 10% fetal bovine serum at 5% CO2 and 37° C. Cells were seeded into either a T-75 or a T-175 flask 3-4 days prior to 96-well assay plating such that the flasks were approximately 70-80% confluent of the time of harvest. Cells were harvested using 0.25% trypsin-EDTA (Invitrogen #25200056). Trypan Blue exclusion staining was used to determine cell number. Viable cells were plated in clear, flat bottom 96-well plates (BD #353075) under anchorage independent conditions at 2,000-10,000 cells per well depending on the cell line. To generate anchorage independent growth conditions, a 5% agar stock solution in water was made and autoclaved to melt and sterilize. […] The next day one plate of cells was processed at the time of compound addition to quantify the starting number of cells (T=0 or T0). […] Following the 6-day incubation, 20 μl of Alamar Blue (Invitrogen # DAL1100) was added to the cells, incubated at 5% CO2 and 37° C. for 6 hours and the plates read on a Spectramax (Gemini EM) at 530 nm (excitation) and 590 nm (emission) with the auto cut-off disabled. […]

HCC1395 = assay: Anchorage independent soft agar tumor growth assay; type: cell-based; settings: HCC1395 breast carcinoma, PTEN p.N212fs*3, No protein
Method: (§1) Cellular Assays—Cell Growth Inhibition Assay in PTEN Wild-Type or PTEN Deficient Tumor Cell Lines Twenty-two Phosphatase and Tensin Homolog (PTEN) wild-type or PTEN deficient tumor cell lines were cultured generally according to instructions supplied by cell culture supplier American Type Culture Collection, Manassas, Va., with 10% fetal bovine serum at 5% CO2 and 37° C. Cells were seeded into either a T-75 or a T-175 flask 3-4 days prior to 96-well assay plating such that the flasks were approximately 70-80% confluent of the time of harvest. Cells were harvested using 0.25% trypsin-EDTA (Invitrogen #25200056). Trypan Blue exclusion staining was used to determine cell number. Viable cells were plated in clear, flat bottom 96-well plates (BD #353075) under anchorage independent conditions at 2,000-10,000 cells per well depending on the cell line. To generate anchorage independent growth conditions, a 5% agar stock solution in water was made and autoclaved to melt and sterilize. From the 5% agar solution, a 0.6% agar/media+10% fetal bovine serum (FBS) solution was made to generate a bottom agar layer in the plates to prevent cell attachment. Seventy five microliters per well of the 0.6% agar-media solution was added to the plates. After solidification, a cell solution of 266,870 to 1, 334,022 cells (depending on the cell line) in 10 ml of 0.3% agar/media+10% FBS was made and 75 μl of the cell/media/agar suspension was added to the plates. After the cell layer solidified, 50 μl of media+10% FBS was added to the top of the cells. A 0.3% Brij 35 (Sigma B4184) solution in media+10% FBS was added to column 12 as a background subtraction control. The cells were incubated overnight at 5% CO2 and 37° C. The next day one plate of cells was processed at the time of compound addition to quantify the starting number of cells (T=0 or T0). […] Three hundred microliters of media was added to the compound dilutions. Ten microliters per well of the serial dilutions was added to the cells and the plates incubated for 6 days at 5% CO2 and 37° C. […] Following the 6-day incubation, 20 μl of Alamar Blue (Invitrogen # DAL1100) was added to the cells, incubated at 5% CO2 and 37° C. for 6 hours and the plates read on a Spectramax (Gemini EM) at 530 nm (excitation) and 590 nm (emission) with the auto cut-off disabled. For analysis of cell growth inhibition dose response curves, the data was plotted as the percent of the DMSO-treated control samples (DMSO samples set to 100%). […] Values from wells containing 0.3% Brij 35 (under anchorage independent conditions) were subtracted from all samples for background correction.

U251 = assay: Anchorage independent soft agar tumor growth assay; type: cell-based; settings: U251 CNS glioblastoma, PTEN p.E242fs*15, No protein
Method: as §1

Colo205 = assay: Anchorage independent soft agar tumor growth assay; type: cell-based; settings: Colo205 colon carcinoma, PTEN Wild-type
Method: as §1

BT474 = assay: Anchorage independent soft agar tumor growth assay; type: cell-based; settings: BT474 breast carcinoma, PTEN Wild-type, Protein
Method: as §1

HCC70 = assay: Anchorage independent soft agar tumor growth assay; type: cell-based; settings: HCC70 breast carcinoma, PTEN p.F90fs*9, No protein
Method: as §1

pAKT (pAKT/tAKT) = assay: Pharmacodynamic effects in PC-3 xenograft tumors (MSD phospho/total AKT); type: in vivo, mouse; settings: 3 mg/kg or 10 mg/kg, 1, 2, 4, 6, 8, 10, and 24 hours
Method: Female nude mice (Charles River Laboratories, Wilmington, Del.; strain CD-1-Foxn1, 6 weeks of age) were injected subcutaneously with 2 million PC-3 (human prostate carcinoma) cells mixed 1:1 with Matrigel in the flank. Tumors were allowed to grow for approximately 5 weeks. […] The tumor was excised. Half of each tumor was immediately processed by Medicon (BD Catalog #340592) in 1 mL Meso-Scale Discovery (MSD) lysis buffer with protease inhibitors (Roche complete protease cocktail, cat #04 693 116 001) and phosphatase inhibitors (Sigma, cat # P2850 and P-5726) for 30-60 seconds and transferred to 1.5 mL Eppendorf tubes. Tubes remained on wet ice until they were centrifuged for 10 minutes at 4° C. at maximum speed in a tabletop refrigerated centrifuge. Tumor lysates were serially diluted in 96-well polypropylene plates on wet ice. Lysates (150 μL) were loaded in row 1; rows 2-12 were loaded with 75 μL of complete Meso Scale Discovery (MSD) lysis buffer (supplied in MSD kit; # […]-3). […] Plates were washed as described above, before the addition of 150 µL of MSD read buffer and read immediately on a 6000 MSD plate reader. […] P/T AKT was calculated as shown: (phospho AKT(Ser473) signal)/[(phospho AKT(Ser473) signal)+(total AKT signal)]. […] Percent inhibition was calculated for each group as follows: 100-[(sample P/T AKT value)/(vehicle P/T AKT value)]*100.

BT549 = assay: Anchorage independent soft agar tumor growth assay; type: cell-based; settings: BT549 breast carcinoma; PTEN p.V275fs*1, No protein; percent of DMSO-treated control
[1] = Homo sapiens, 144 h, 6-day incubation, Alamar Blue, read-out: Compound EC50 (nM) ± StDev
[2] = percent of DMSO-treated control

For `Cc1c(Cn2c(C)nc3c(C(=O)O)cc(N4CCOCC4)cc32)cccc1C(F)(F)F` [Example 31, 2-methyl-1-{[2-methyl-3-(trifluoromethyl)phenol]methyl}-6-(4-morpholinyl)-1H-benzimidazole-4-carboxylic acid], the EC50 (PC-3; [1]) was 27 ± 12 nM, the “Compound Ymin ± StDev” value (PC-3; [2]) was 82 ± 13 and the “Compound Ymin ± StDev” value (HCC1395; [2]) was 26 ± 9. For the same compound, the EC50 (HCC1395; [1]) was 114 ± 53 nM, the EC50 (U251; Homo sapiens, U-251, 144 h, 6-day incubation, Alamar Blue, read-out: Compound EC50 (nM) ± StDev) was 19000 ± 8620 nM and the “Compound Ymin ± StDev” value (U251; [2]) was 80 ± 17. For the same compound, the “Compound Ymin ± StDev” value (Colo205; [2]) was >80, the EC50 (Colo205; Homo sapiens, COLO 205, 144 h, 6-day incubation, Alamar Blue, read-out: Compound EC50 (nM) ± StDev) was > 30700 nM and the “Compound Ymin ± StDev” value (BT474; [2]) was 75 ± 3. The EC50 (BT474; Homo sapiens, BT-474, 144 h, 6-day incubation, Alamar Blue, read-out: Compound EC50 (nM) ± StDev) was 3360 ± 868 nM, the “Compound Ymin ± StDev” value (HCC70; [2]) was 27 ± 8 and the EC50 (HCC70; [1]) was 53 ± 21 nM. The “Inhibition of the pharmacodynamic marker pAKT (pAKT/tAKT)” value (pAKT (pAKT/tAKT)) was “dose dependent inhibition” and the “Compound Ymin ± StDev” value (BT549) was 52 ± 7.
